# Laboratory results: patent publication US20130158075A1, “HETEROCYCLIC COMPOUNDS AS DGAT1 INHIBITORS” (PIRAMAL ENTERPRISES LIMITED, priority 2010, published 2013)
# Target: T1, hDGAT1 (Homo sapiens, UniProt O75907)
# T1 construct: made in house; host or cells: Sf9 insect cells (baculovirus); microsomal fraction
# T1 sequence (O75907 1-488): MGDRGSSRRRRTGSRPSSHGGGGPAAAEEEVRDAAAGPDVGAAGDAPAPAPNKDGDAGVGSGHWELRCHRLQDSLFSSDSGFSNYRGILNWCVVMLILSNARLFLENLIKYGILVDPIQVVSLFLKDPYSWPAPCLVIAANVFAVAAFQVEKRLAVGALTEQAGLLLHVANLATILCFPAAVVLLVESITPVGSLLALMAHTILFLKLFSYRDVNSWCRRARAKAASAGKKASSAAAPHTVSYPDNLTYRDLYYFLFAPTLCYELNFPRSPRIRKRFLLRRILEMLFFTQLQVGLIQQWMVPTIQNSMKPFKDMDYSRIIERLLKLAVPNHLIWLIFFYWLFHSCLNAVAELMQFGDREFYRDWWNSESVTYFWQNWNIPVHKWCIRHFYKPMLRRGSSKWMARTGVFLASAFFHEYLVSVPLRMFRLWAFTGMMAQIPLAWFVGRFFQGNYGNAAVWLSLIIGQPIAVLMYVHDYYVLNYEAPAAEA
# Test: In-vitro DGAT1 assay with hDGAT1 microsomes from Sf9 cells (14C oleoyl CoA, scintillation counting)
# Type: biochemical
# Conditions: at 1 μM
# In short: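 Microsomes from Sf9 cells infected with hDGAT1 baculovirus (MOI 5, harvested ~66-72 h) were incubated with [14C]oleoyl-CoA and 1,2-dioleoyl-sn-glycerol at 37 °C for 10 min, in duplicate. After alkaline ethanol stop, triglycerides were heptane-extracted and counted by liquid scintillation; percent inhibition was plotted against compound concentration (nM).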
row,Percentage inhibition of hDGAT1,SMILES
1,++ (>50 % Inhibition),"O=C(O)CC1CCC(c2ncc(-c3ccc(NC(=O)c4nc(-c5ccccc5)oc4C(F)(F)F)cc3)s2)CC1 (stereo not drawn) [Example 370, 2-(4-(5-(4-(2-Phenyl-5-(trifluoromethyl)oxazole-4-carboxamido)phenyl)thiazol-2-VI)cyclohexyl)acetic acid]"
2,++ (>50 % Inhibition),CC(C)(O)CC1CCC(c2ncc(-c3ccc(NC(=O)Nc4cc(F)c(F)cc4F)cc3)s2)CC1 (stereo not drawn) [Example 409]

row,SMILES,Percentage inhibition of hDGAT1
1,"CC(C)(Cc1ncc(-c2ccc(NC(=O)c3ccc(-c4ccccc4)cc3)cc2)s1)C(=O)O [Example 44, 3-(5-(4-Biphenyl-4-ylcarboxamidophenyl)thiazol-2-yl)-2,2-dimethylpropanoic acid]",+ (20-50% Inhibition)

# Same assay, conditions: read-out: Percentage inhibition of hDGAT1
row,SMILES,inhibition at 1 µM
1,"O=C(O)CC1CCC(c2ncc(-c3ccc(NC(=O)Nc4cc(F)cc(F)c4)cc3)s2)CC1 (stereo not drawn) [Example 356, 2-(4-(5-(4-(3-(3,5-Difluorophenyl)ureido)phenyl)thiazol-2-yl)cyclohexyl)acetic acid]",> 50%
2,"O=C(O)CC1CCC(c2ncc(-c3ccc(NC(=O)c4ccc(Cl)cc4Cl)cc3)s2)CC1 (stereo not drawn) [Example 364, 2-(4-(5-(4-(2,4-Dichlorobenzamido)phenyl)thiazol-2-yl)cyclohexyl)acetic acid]",> 50%
3,"O=C(Nc1ccc(-c2cnc(C3CCC(C(=O)O)CC3)o2)cc1)Nc1ccccc1Cl (stereo not drawn) [Example 204, 4-(5-(4-(3-(2-Chlorophenyl)ureido)phenyl)oxazol-2-yl)cyclohexanecarboxylic acid]",20 to 50%
4,"CC(C)(O)C1CCC(c2ncc(-c3ccc(NC(=O)Nc4ccccc4Cl)cc3)s2)CC1 (stereo not drawn) [Example 404, 1-(2-Chlorophenyl)-3-(4-(2-(4-(2-hydroxypropan-2-yl)cyclohexyl)thiazol-5-yl)phenyl)urea]",> 50%
5,"CC(C)(CC(=O)O)Cc1ncc(-c2ccc(NC(=O)Nc3ccc(Cl)cc3Oc3ccccc3)cc2)s1 [Example 73, 4-(5-(4-(3-(4-Chloro-2-phenoxyphenyl)ureido)phenyl)thiazol-2-yl)-3,3-dimethyl butanoic acid]",> 50%
6,"O=C(O)CCCc1nnc(-c2ccc(NC(=O)Nc3ccccc3Cl)cc2)o1 [Example 296, 4-(5-(4-(3-(2-Chlorophenyl)ureido)phenyl)-1,3,4-oxadiazol-2-yl)butanoic acid]",20 to 50%
7,"O=C(O)CCc1ncc(-c2ccc(NC(=O)Nc3ccc(Cl)cc3Oc3ccccc3)cc2)s1 [Example 13, 3-(5-(4-(3-(4-Chloro-2-phenoxyphenyl)ureido)phenyl)thiazol-2-yl)propanoic acid]",> 50%
8,"CC(C)(C)c1ccc(C(=O)Nc2ccc(-c3cnc(C4CCC(C(=O)O)CC4)o3)cc2)cc1 (stereo not drawn) [Example 214, 4-(5-(4-(4-Tert-butylbenzamido)phenyl)oxazol-2-yl)cyclohexanecarboxylic acid]",20 to 50%
9,"O=C(Nc1ccc(-c2cnc(C3CCC(C(=O)O)CC3)s2)cc1)Nc1ccc(F)c(F)c1 (stereo not drawn) [Example 180, 4-(5-(4-(3-(3,4-Difluorophenyl)ureido)phenyl)thiazol-2-yl)cyclohexane carboxylic acid]",> 50%
10,"CC(C)(CC(=O)O)Cc1ncc(-c2ccc(NC(=O)Nc3ccccc3Cl)cc2)s1 [Example 71, 4-(5-(4-(3-(2-Chlorophenyl)ureido)phenyl)thiazol-2-yl)-3,3-dimethyl butanoic acid]",> 50%
11,"O=C(Nc1ccc(-c2cnc(C3CCC(C(=O)O)CC3)s2)cc1)Nc1ccc(F)c(F)c1F (stereo not drawn) [Example 186, 4-(5-(4-(3-(2,3,4-Trifluorophenyl)ureido)phenyl)thiazol-2-yl)cyclohexane carboxylic acid]",> 50%
12,"O=C(Nc1ccc(-c2cnc(C3CCC(C(=O)O)CC3)s2)cc1)Nc1ccc(Cl)cc1F (stereo not drawn) [Example 172, 4-(5-(4-(3-(4-Chloro-2-fluorophenyl)ureido)phenyl)thiazol-2-yl)cyclohexane carboxylic acid]",> 50%
13,"COc1ccc(NC(=O)Nc2ccc(-c3cnc(C4CCC(C(=O)O)CC4)s3)cc2)c(C)c1 (stereo not drawn) [Example 154, 4-(5-(4-(3-(4-Methoxy-2-methylphenyl)ureido)phenyl)thiazol-2-yl)cyclo hexanecarboxylic acid]",> 50%
14,"O=C(O)CN1CCC(c2ncc(-c3ccc(NC(=O)Nc4ccccc4C(F)(F)F)cc3)s2)CC1 [Example 437, 2-(4-(5-(4-(3-(2-(Trifluoromethyl)phenyl)ureido)phenyl)thiazol-2-yl)piperidin-1-yl)acetic acid]",> 50%
15,"O=C(O)CCc1ncc(-c2ccc(NC(=O)Nc3ccccc3Cl)cc2)s1 [Example 9, 3-(5-(4-(3-(2-Chlorophenyl)ureido)phenyl)thiazol-2-yl)propanoic acid]",> 50%
16,"O=C(O)CCCc1nnc(-c2ccc(NC(=O)Nc3cccc(C(F)(F)F)c3)cc2)o1 [Example 302, 4-(5-(4-(3-(3-(Trifluoromethyl)phenyl)ureido)phenyl)-1,3,4-oxadiazol-2-yl)butanoic acid]",20 to 50%
17,"O=C(O)CCCc1nnc(-c2ccc(NC(=O)Nc3ccc(F)cc3F)cc2)s1 [Example 284, 4-(5-(4-(3-(2,4-Difluorophenyl)ureido)phenyl)-1,3,4-thiadiazol-2-yl)butanoic acid]",> 50%
18,"O=C(Nc1ccc(-c2cnc(C3CCC(C(=O)O)CC3)s2)cc1)NC1CCCCC1 (stereo not drawn) [Example 142, 4-(5-(4-(3-Cyclohexylureido)phenyl)thiazol-2-yl)cyclohexanecarboxylic acid]",> 50%

# Second part, the compound after the results:
row,inhibition at 1 µM,SMILES
1,> 50%,"O=C(Nc1ccc(-c2cnc(CCNS(=O)(=O)C(F)(F)F)s2)cc1)c1nc(-c2ccccc2)oc1C(F)(F)F [Example 533, 2-Phenyl-5-(trifluoromethyl)-N-(4-(2-(2-(trifluoromethylsulfonamido)ethyl)thiazol-5-yl)phenyl)oxazole-4-carboxamide]"
2,> 50%,"O=C(Nc1ccc(-c2cnc(C3CCC(C(=O)O)CC3)s2)cc1)Nc1cc(F)c(F)cc1F (stereo not drawn) [Example 584, 4-(5-(4-(3-(2,4,5-Trifluorophenyl)ureido)phenyl)thiazol-2-yl)cyclohexane carboxylic acid]"
3,> 50%,"O=C(Nc1ccc(-c2cnc(CNS(=O)(=O)C(F)(F)F)s2)cc1)c1ccc(C(F)(F)F)cc1 [Example 552, 4-(Trifluoromethyl)-N-(4-(2-((trifluoromethylsulfonamido)methyl)thiazol-5-yl)phenyl)benzamide]"
4,20 to 50%,"CC(C)(NS(=O)(=O)C(F)(F)F)c1ncc(-c2ccc(NS(=O)(=O)c3ccccc3)cc2)s1 [Example 568, N-(4-(2-(2-(Trifluoromethylsulfonamido)propan-2-yl)thiazol-5-yl)phenyl)benzenesulfonamide]"
5,20 to 50%,"CC(C)(C)OC(=O)N1CCC(c2ncc(-c3ccc(NC(=O)Nc4c(F)cc(F)cc4F)cc3)s2)CC1 [Example 479, t-Butyl 4-(5-(4-(3-(2,4,6-trifluorophenyl)ureido)phenyl)thiazol-2-yl)piperidine-1-carboxylate]"
6,> 50%,"CC(C)(NS(=O)(=O)C(F)(F)F)c1ncc(-c2ccc(NC(=O)Nc3ccccc3F)cc2)s1 [Example 563, 1,1,1-Trifluoro-N-(2-(5-(4-(3-(2-fluorophenyl)ureido)phenyl)thiazol-2-yl)propan-2-yl)methanesulfonamide]"
7,> 50%,"CC(C(=O)O)N1CCC(c2ncc(-c3ccc(NC(=O)Nc4ccccc4F)cc3)s2)CC1 (stereo not drawn) [Example 453, 2-(4-(5-(4-(3-(2-Fluorophenyl)ureido)phenyl)thiazol-2-yl)piperidin-1-yl) propanoic acid]"
8,> 50%,"O=C(Nc1ccc(-c2cnc(C34CC5CC(CC(C(=O)O)(C5)C3)C4)s2)cc1)Nc1cccc(C(F)(F)F)c1 [Example 514, 3-(5-(4-(3-(3-(Trifluoromethyl)phenyl)ureido)phenyl)thiazol-2-yl)adamantane-1-carboxylic acid]"
9,> 50%,"CC(C)(CCc1ncc(-c2ccc(NC(=O)Nc3ccccc3Cl)cc2)s1)C(=O)NS(=O)(=O)C(F)(F)F [Example 579, 4-(5-(4-(3-(2-Chlorophenyl)ureido)phenyl)thiazol-2-yl)-2,2-dimethyl-N-((trifluoromethyl)sulfonyl)butanamide]"
10,> 50%,"CC(C)(CCc1ncc(-c2ccc(NC(=O)Nc3ccccc3F)cc2)s1)C(=O)NS(=O)(=O)C(F)(F)F [Example 580, 4-(5-(4-(3-(2-Fluorophenyl)ureido)phenyl)thiazol-2-yl)-2,2-dimethyl-N-((trifluoromethyl)sulfonyl)butanamide]"
11,20 to 50%,"CC(C)(C)OC(=O)N1CCC(c2ncc(-c3ccc(NC(=O)Nc4ccc(F)cc4F)cc3)s2)CC1 [Example 477, t-Butyl 4-(5-(4-(3-(2,4-difluorophenyl)ureido)phenyl)thiazol-2-yl)piperidine-1-carboxylate]"
12,> 50%,"CC(C(=O)O)N1CCC(c2ncc(-c3ccc(NC(=O)Nc4c(F)cc(F)cc4F)cc3)s2)CC1 (stereo not drawn) [Example 459, 2-(4-(5-(4-(3-(2,4,6-Trifluorophenyl)ureido)phenyl)thiazol-2-yl)piperidin-1-yl)propanoic acid]"
